The values that follow come from patent US11938220B2, “Sustained-release anesthetic compositions and methods of preparation thereof” (TLC Biopharmaceuticals, Inc., priority 2018, dated 2024).

The test deals with Sprague-Dawley rats after paw incision. Nature of the test: Anesthetic effect in a paw incision rat model (Von Frey, 50% paw withdrawal threshold). The test is classed as in vivo. As to conditions: intra-plantar injection after paw incision, 1.9 mg ropivacaine articles, 1.33 mg ER Bupivacaine per incision, 0.5 hour after injection. From the text:
FIG. 1A is a graph depicting 50% paw withdrawal threshold by a Von Frey test; wherein an anesthetic composition in accordance with the present disclosure (Ropivacaine composition) is our test article and ropivacaine injectable solution (unformulated ropivacaine) and commercial extended release liposomal bupivacaine (ER Bupivacaine) are used as reference articles. Saline, Ropivacaine composition, Ropivacaine injectable solution, and ER Bupivacaine were intra-plantarly administered after paw incision; the error bars represent the standard error of mean (SEM); and *:P<0.05 when compared to ER Bupivacaine group; BBL=Before surgery baseline; ABL=After surgery baseline.
FIG. 1B is a graph depicting the percentage of maximum possible effects (% MPE), calculated from the 50% paw withdrawal threshold using the formula % MPE=(Thresholdaftertreatment−ABL)/(BBL−ABL)×100%; wherein the error bars represent the standard error of mean (SEM); *:P<0.05 when compared to ER Bupivacaine group. MPE over 30% is considered effective;
Sprague-Dawley rats were used for evaluating the anesthetic efficacy after paw incision as described in Pain. 1996 March; 64(3):493-501. […]
Before surgery baselines (BBL) of 27 rats were measured −1 to −3 days prior to surgery; after surgery baselines (ABL) of 27 rats were measured 30 minutes after surgery. […]

As for `CCCN1CCCC[C@H]1C(=O)Nc1c(C)cccc1C` [unformulated ropivacaine, ropivacaine], the “50% paw withdrawal threshold at T=0.5 hour” value was found to be 11.47 g.
